From ChEMBL document CHEMBL1201862, “PubChem BioAssay data set” (2004)
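Where inhibition never reached the appropriate level, the endpoint shown equals the highest concentration tested. Otherwise, values were interpolated linearly from a five-concentration, 48-hour dose response in 96-well plates. At the GI50, growth is halved.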 Active and inactive are the calls of the source. Cut-off read from the data, not from the text of the source: active = GI50 up to about 1.1 µM and inactive = higher.

What was measured:
Assay in all cases: DTP human tumour cell line panel, 48 h
[1] = test system: SK-MEL-2
[2] = test system: LOX IMVI
[3] = test system: KM12
[4] = test system: SR
[5] = test system: MOLT-4
[6] = test system: RPMI-8226
[7] = test system: SF-268
[8] = test system: UACC-257
[9] = test system: A549
[10] = test system: OVCAR-8
[11] = test system: NCI/ADR-RES
[12] = test system: M14
[13] = test system: SNB-75
[14] = test system: A498
[15] = test system: MDA-N
[16] = test system: CAKI-1
[17] = test system: IGROV-1
[18] = test system: OVCAR-5
[19] = test system: Hs-578T
[20] = test system: PC-3

SMILES | GI50 [1] | GI50 [2] | GI50 [3] | GI50 [4] | GI50 [5] | GI50 [6] | GI50 [7] | GI50 [8] | GI50 [9] | GI50 [10] | GI50 [11] | GI50 [12] | GI50 [13] | GI50 [14] | GI50 [15] | GI50 [16] | GI50 [17] | GI50 [18] | GI50 [19] | GI50 [20]
COc1cc(-c2ccc(Nc3ccccc3C(=O)O)c(OC)c2)ccc1Nc1ccccc1C(=O)O | 19.3 µM (inactive) | 1.28 µM (inactive) | 7.53 µM (inactive) | 0.557 µM (active) | 1.13 µM (inactive) | 2.33 µM (inactive) | 11.4 µM (inactive) | 20.5 µM (inactive) | 4.22 µM (inactive) | 8.95 µM (inactive) | > 46.2 µM (inactive) | 26.5 µM (inactive) | 30.2 µM (inactive) | > 47.2 µM (inactive) | 10 µM (inactive) | 8.69 µM (inactive) | 21 µM (inactive) | > 37.5 µM (inactive) | 11.3 µM (inactive) | 2 µM (inactive)
CCN1CN(c2ccccc2)C2(CCN(CC3COc4ccccc4O3)CC2)C1=O (stereo not given) | 13.2 µM (inactive) | 17.9 µM (inactive) | 17.5 µM (inactive) | 5.13 µM (inactive) | 14.5 µM (inactive) | 17.4 µM (inactive) | 42.5 µM (inactive) | 35.3 µM (inactive) | 36.6 µM (inactive) | 34.7 µM (inactive) | 37.2 µM (inactive) | 2.21 µM (inactive) | 30.2 µM (inactive) | 22.6 µM (inactive) | 2.28 µM (inactive) | 43 µM (inactive) | 53.7 µM (inactive) | 24.3 µM (inactive) | 20.7 µM (inactive) | 25.3 µM (inactive)
C=CCN(c1cc(OC)c(NC(C)=O)cc1[N+](=O)[O-])S(C)(=O)=O | > 100 µM (inactive) | > 100 µM (inactive) | > 100 µM (inactive) | > 100 µM (inactive) | > 100 µM (inactive) | > 100 µM (inactive) | > 100 µM (inactive) | > 100 µM (inactive) | > 100 µM (inactive) | > 100 µM (inactive) | > 100 µM (inactive) | > 100 µM (inactive) | > 100 µM (inactive) | > 100 µM (inactive) | > 100 µM (inactive) | > 100 µM (inactive) | > 100 µM (inactive) | > 100 µM (inactive) | > 100 µM (inactive) | > 100 µM (inactive)
COc1cccc2c(=O)oc(-c3ccc(C(C)(C)C)cc3)nc12 | 44 µM (inactive) | 22.5 µM (inactive) | 32.4 µM (inactive) | 26.1 µM (inactive) | 22.7 µM (inactive) | 34.3 µM (inactive) | 84.9 µM (inactive) | > 100 µM (inactive) | 85.1 µM (inactive) | 39.7 µM (inactive) | 54.8 µM (inactive) | 82 µM (inactive) | 23.9 µM (inactive) | > 100 µM (inactive) | 76.7 µM (inactive) | 35.8 µM (inactive) | 45.1 µM (inactive) | > 100 µM (inactive) | 79.3 µM (inactive) | > 100 µM (inactive)
Cc1ccc2c(c1)C1(C)OC(C=CC1=O)O2 (stereo not given) | 1.77 µM (inactive) | 0.573 µM (active) | 0.736 µM (active) | 0.106 µM (active) | 0.225 µM (active) | 0.308 µM (active) | 1.41 µM (inactive) | 1.01 µM (active) | 3.24 µM (inactive) | 0.282 µM (active) | 0.0681 µM (active) | 0.316 µM (active) | 1.68 µM (inactive) | 3.89 µM (inactive) | 0.18 µM (active) | 0.31 µM (active) | 2.18 µM (inactive) | 1.85 µM (inactive) | 2.9 µM (inactive) | 0.499 µM (active)
C=C(CC[C@@H](C)[C@H]1CC[C@H]2[C@@H]3C[C@@H](O)[C@H]4C[C@@H](O)CC[C@]4(CO)[C@H]3CC[C@]12C)C(C)C | 7.33 µM (inactive) | 3.11 µM (inactive) | 2.09 µM (inactive) | 2.71 µM (inactive) | 3.3 µM (inactive) | 5.08 µM (inactive) | 6.35 µM (inactive) | 7.46 µM (inactive) | 4.23 µM (inactive) | 5.47 µM (inactive) | 4.49 µM (inactive) | 6.97 µM (inactive) | 8.32 µM (inactive) | 6.62 µM (inactive) | 8.49 µM (inactive) | 5.64 µM (inactive) | 5.18 µM (inactive) | 6.68 µM (inactive) | 6.18 µM (inactive) | 4.94 µM (inactive)
Cc1ccc(NC(=O)c2cc(S(=O)(=O)Nc3n[nH]c(=O)n3-c3ccccc3)c(S)cc2Cl)cc1 | > 100 µM (inactive) | > 100 µM (inactive) | > 100 µM (inactive) | > 100 µM (inactive) | > 100 µM (inactive) | > 100 µM (inactive) | > 100 µM (inactive) | > 100 µM (inactive) | > 100 µM (inactive) | > 100 µM (inactive) | > 100 µM (inactive) | > 100 µM (inactive) | > 100 µM (inactive) | > 100 µM (inactive) | > 100 µM (inactive) | > 100 µM (inactive) | > 100 µM (inactive) | > 100 µM (inactive) | > 100 µM (inactive) | > 100 µM (inactive)
N#CCC1(c2ccc(Cl)cc2)NC(=O)c2ccccc21 (stereo not given) | > 100 µM (inactive) | > 100 µM (inactive) | > 100 µM (inactive) | > 100 µM (inactive) | > 100 µM (inactive) | > 100 µM (inactive) | > 100 µM (inactive) | > 100 µM (inactive) | > 100 µM (inactive) | > 100 µM (inactive) | > 100 µM (inactive) | > 100 µM (inactive) | 60.8 µM (inactive) | > 100 µM (inactive) | > 100 µM (inactive) | > 100 µM (inactive) | > 100 µM (inactive) | > 100 µM (inactive) | > 100 µM (inactive) | > 100 µM (inactive)
Nc1nc(Cl)cc(NCC2(CO)CC(CCCc3ccccc3)C2)n1 (stereo not given) | > 100 µM (inactive) | 0.282 µM (active) | > 100 µM (inactive) | 1 µM (active) | > 26.9 µM (inactive) | > 100 µM (inactive) | > 100 µM (inactive) | 0.242 µM (active) | 14.7 µM (inactive) | > 72.1 µM (inactive) | 4.86 µM (inactive) | > 100 µM (inactive) | > 46 µM (inactive) | > 63.1 µM (inactive) | > 100 µM (inactive) | > 100 µM (inactive) | > 72.8 µM (inactive) | > 100 µM (inactive) | > 64.4 µM (inactive) | > 81.3 µM (inactive)
O=C(OCCN1CCCCC1)C(c1ccccc1)C1(O)CCSCC1 (stereo not given) | > 100 µM (inactive) | > 100 µM (inactive) | > 100 µM (inactive) | > 100 µM (inactive) | > 100 µM (inactive) | > 100 µM (inactive) | > 100 µM (inactive) | > 100 µM (inactive) | > 100 µM (inactive) | > 100 µM (inactive) | > 100 µM (inactive) | > 100 µM (inactive) | 83.4 µM (inactive) | > 100 µM (inactive) | > 100 µM (inactive) | > 100 µM (inactive) | > 100 µM (inactive) | > 100 µM (inactive) | > 100 µM (inactive) | > 100 µM (inactive)
